Measured values taken from patent US20250304973A1, “HIGH-AFFINITY THROMBIN APTAMERS AND METHODS OF USE” (Ayass Bioscience LLC, priority 2024, published 2025).
Entries after “also recorded” stand apart in the source; their conditions may differ.

Legend:
[1] = system: whole human blood; test: Dose-dependent prothrombin time (PT) in whole blood; format: biochemical; conditions: 1, 2, 3, 4 uM; 2 h room temperature; citrated whole human blood
Procedure: 139. […] PT time was measured using RecombiPlasTin 2G for quantitative determination in human citrated plasma of PT and Fibrinogen on an ACLTOP coagulation analyzer manufactured by Instrumentation Laboratory (Bedford, MA, USA). To assess the activity of the aptamers in a dose-dependent manner in whole blood, human blood samples were collected in citrate-treated tubes. The blood samples were then incubated at room temperature for 2 h in the absence or presence of varying concentrations of the thrombin aptamers. To measure the Prothrombin Time (PT) on the ACLTOP coagulation analyzer, plasma was obtained by centrifuging the samples at 1500×g for 10 min at 4° C. For the dose dependence study, concentrations of 1 uM, 2 uM, 3 uM, and 4 uM of AYA1809002 and AYA1809004 were utilized.
156. To facilitate future applications, gaining a comprehensive understanding of the activity of aptamers in whole blood is of paramount importance. To assess their effectiveness, we tested the selected aptamers at various concentrations in whole blood to evaluate their impact on Factor II activity and PT time. Human blood samples were collected in citrate- treated tubes. The blood samples were then incubated at room temperature for 2 h in the absence or presence of varying concentrations of thrombin aptamers. […]

[2] = Major bleeding rate in animal studies (Table 3); format: in vivo
[3] = biological target: thrombin (Homo sapiens, UniProt P00734); test: Thrombin inhibition IC50 (Table 3); format: biochemical; conditions: Table 3, AYA1809002
[4] = Storage stability (Table 3); format: physicochemical; conditions: after 24 months at room temperature
[5] = Onset, consistency and reversal of anticoagulant effect (Table 3); format: in vivo; conditions: Table 3, AYA1809002
[6] = biological target: thrombin over other serine proteases (Homo sapiens, UniProt P00734); test: Selectivity for thrombin over other serine proteases (Table 3); format: biochemical; conditions: Table 3, AYA1809002
[7] = Pharmacokinetics and renal clearance (Table 3); format: in vivo; conditions: Table 3, AYA1809002
[8] = system: rat whole blood; test: Factor II activity, PT, APPT and TT in rat whole blood; format: biochemical; conditions: dose-dependent manner

Row | Substance | effect on prothrombin time (PT) in whole blood [1] | major bleeding rate [2] | IC50 [3] [nM] | activity maintained on storage [4] | Anticoagulant Effect Consistency: inter-individual variability in aPTT prolongation [5] [% inter-individual] | Onset of Action: peak effect [5] | selectivity for thrombin over other serine proteases [6] | Renal Clearance [7] [%] | APPT in rat whole blood [8] | Factor II activity in rat whole blood [8] | PT in rat whole blood [8] | TT in rat whole blood [8]
1 | AYA1809004: ssDNA thrombin aptamer TCGTCAAGGTACGGTTGGGGGGGTGGGTGTTGACGTTGAA (DNA, backbone not given here) | corresponding increase in prothrombin time | – | – | – | – | – | – | – | – | – | – | –
2 | AYA1809002: ssDNA thrombin aptamer GCGGTGTTGCTGGGGTTGGGAGGTTGGAGGAAGCAATCGC | corresponding increase in prothrombin time; also recorded: corresponding increase in PT | (≤2% major bleeding | ≤ 0.5 | Maintain >95% | <15 | Peak effect withing 1 hour | >100-fold selectivity | <50 | extend | inhibit | extend | extend
